# In patent US11759461B2, “Small molecule inhibitors of cancer stem cells and mesenchymal cancer types” (The Scripps Research Institute, priority 2017, dated 2023):
# Test system: FOXC2-expressing HMLER cells
# Experiment: Cell Titer Glo viability of FOXC2-HMLER cells (high throughput screen and 10-point response)
# Assay type: cell-based
# Conditions: Homo sapiens; scored relative to parent compound 1; 72 hours; read-out: Activity Score, inhibition of FOXC2-expressing HMLER cells by Formula I compounds
# Experimental: For high throughput screening, FOXC2-HMLER and HMLER cells were plated at 10^3 cells per well in white 384-well plates in 50 μL of MEGM medium (Lonza). Cells were allowed to attach for one hour before compound was transferred to each well as a DMSO solution using a 100 nL pintool head affixed to a PerkinElmer FX instrument. After 72-hour incubation, 30 μL of a Cell Titer Glo solution (diluted 1:6 in water, Promega) was dispensed into each well and luminance values were recorded using an Envision plate reader. […] All other miniaturized, selective viability experiments were performed as above using the indicated growth medium.
# More specifically, in the high throughput screening assay above, each cell line was plated at 1,000 cells per well in 384-well plates, treated for 72 hours with 2 μM of test compound, and the viability of each line was determined in parallel by Cell Titer Glo (Promega) luminance measurements.
row,SMILES,IC50 [µM]
1,CC1CC(C)CN(c2cnnc3c(Cl)cccc23)C1 (stereo not shown) [Compound 1A],1 to 20
2,Cc1ccc(-c2cc3c(N4CCN(c5ccccc5)CC4)nccn3n2)cc1C [Compound 1B],1 to 20
3,Cc1ccc(N2CCN(c3nccn4nc(-c5ccccc5)cc34)CC2)cc1 [Compound 1C],1 to 20
4,Clc1cccc(N2CCN(c3cnc4ccccc4n3)CC2)c1 [Compound 1D],1 to 20
5,Clc1ccc(N2CCN(c3ccccc3Cl)CC2)nn1 [Compound 1E],> 20
6,COc1ccc(N2CCN(c3nccn4nc(-c5ccc(Cl)cc5)cc34)CC2)cc1 [Compound 1F],> 20
7,Clc1ccc2c(N3CCNCC3)ccnc2c1 [Compound 1G],> 20
8,Clc1ccc(N2CCN(c3cnnc4c(Cl)cccc34)CC2)cc1Cl [Compound 1SRAA],1 to 20
9,Clc1ccc(Cl)c(N2CCN(c3cnnc4c(Cl)cccc34)CC2)c1 [Compound 1SRAB],1 to 20
10,FC(F)(F)Oc1cccc(N2CCN(c3cnnc4c(Cl)cccc34)CC2)c1 [Compound 1SRAC],1 to 20
11,Clc1cccc(N2CCN(c3cnnc4c(Cl)cccc34)CC2)n1 [Compound 1SRAD],1 to 20
12,Clc1nccc(N2CCN(c3cnnc4c(Cl)cccc34)CC2)n1 [Compound 1SRAE],> 20
13,Clc1cncc(N2CCN(c3cnnc4c(Cl)cccc34)CC2)n1 [Compound 1SRAF],> 20
14,Fc1cc(Cl)cc(N2CCN(c3cnnc4c(Cl)cccc34)CC2)c1 [Compound 1SRAG],< 1
15,COc1cc(Cl)cc(N2CCN(c3cnnc4c(Cl)cccc34)CC2)c1 [Compound 1SRAH],< 0.234
16,Cc1cc(Cl)cc(N2CCN(c3cnnc4c(Cl)cccc34)CC2)c1 [Compound 1SRAI],< 1
17,FC(F)(F)c1cc(Cl)cc(N2CCN(c3cnnc4c(Cl)cccc34)CC2)c1 [Compound 1SRAJ],1 to 20
18,N#Cc1cc(Cl)cc(N2CCN(c3cnnc4c(Cl)cccc34)CC2)c1 [Compound 1SRAK],< 1
19,Cc1c(Cl)cc(N2CCN(c3cnnc4c(Cl)cccc34)CC2)cc1Cl [Compound 1SRAL],1 to 20

row,SMILES,IC50 [µM]
1,Cc1c(S(=O)(=O)N2CCN(c3cnnc4c(Cl)cccc34)CC2)cnn1C(F)F [Compound 1SRAM],> 20
2,Clc1cc(Cl)cc(N2C[C@@H]3C[C@H]2CN3c2cnnc3c(Cl)cccc23)c1 [Compound 1SRAN],< 1
3,Clc1cc(Cl)cc(N2CCN(c3cnnc4c(Cl)cccc34)CC2)c1 [Compound 1SRH],< 0.234
4,Fc1c(Cl)cc(N2CCN(c3cnnc4c(Cl)cccc34)CC2)cc1Cl [Compound 1SRI],1 to 20
5,Fc1ccc(N2CCN(c3cnnc4c(Cl)cccc34)CC2)cc1Cl [Compound 1SRJ],1 to 20
6,Fc1c(Cl)cccc1N1CCN(c2cnnc3c(Cl)cccc23)CC1 [Compound 1SRK],1 to 20
7,CC1CN(c2cc(Cl)cc(Cl)c2)CCN1c1cnnc2c(Cl)cccc12 (stereo not shown) [Compound 1SRL],< 1
8,CC1CN(c2cnnc3c(Cl)cccc23)CCN1c1cc(Cl)cc(Cl)c1 (stereo not shown) [Compound 1SRM],< 1
9,Clc1cc(Cl)cc(N2CCN(c3cnnc4ccccc34)CC2)c1 [Compound 1SRN],< 1
10,Fc1cccc(N2CCN(c3cnnc4c(Cl)cccc34)CC2)c1 [Compound 1SRO],1 to 20
11,FC(F)(F)c1cccc(N2CCN(c3cnnc4c(Cl)cccc34)CC2)c1 [Compound 1SRP],1 to 20
12,FC(F)(F)Sc1cccc(N2CCN(c3cnnc4c(Cl)cccc34)CC2)c1 [Compound 1SRQ],1 to 20
13,COc1cccc(N2CCN(c3cnnc4c(Cl)cccc34)CC2)c1 [Compound 1SRT],< 1
14,NC(=O)c1cccc(N2CCN(c3cnnc4c(Cl)cccc34)CC2)c1 [Compound 1SRV],1 to 20
15,Clc1ccccc1N1CCN(c2cnnc3c(Cl)cccc23)CC1 [Compound 1SRW],1 to 20
16,Clc1cccc2c(N3CCN(c4ccccc4)CC3)cnnc12 [Compound 1SRX],> 20
17,Clc1ccc(N2CCN(c3cnnc4c(Cl)cccc34)CC2)cc1 [Compound 1SRY],> 20
18,Clc1cccc(N2CCN(c3cnnc4c(Cl)cccc34)CC2)c1Cl [Compound 1SRZ],> 20

# Same assay, conditions: Homo sapiens; scored relative to parent compound 2; 72 hours; read-out: Activity Score, inhibition of FOXC2-expressing HMLER cells by Formula II compounds
row,SMILES,IC50 [µM]
1,COc1ccc(NCc2cc3cc4c(cc3n(CC(=O)Nc3ccccc3)c2=O)OCCO4)cc1 [Compound 2AA],1 to 20
2,COc1cc2cc(CNc3ccc(C)cc3)c(=O)n(CC(=O)Nc3cc(C)ccc3C)c2cc1OC [Compound 2AB],1 to 20
3,COc1ccc2cc(CNc3ccc(C)cc3)c(=O)n(CC(=O)Nc3ccc(C)cc3C)c2c1 [Compound 2AC],1 to 20
4,CCc1ccccc1NC(=O)Cn1c(=O)c(CNc2ccccc2)cc2cc3c(cc21)OCCO3 [Compound 2AD],1 to 20
5,CCc1ccc(NC(=O)Cn2c(=O)c(CNc3ccccc3)cc3cc4c(cc32)OCCO4)cc1 [Compound 2AE],1 to 20
6,CCc1ccccc1NC(=O)Cn1c(=O)c(CNc2ccc(C)cc2)cc2cc3c(cc21)OCCO3 [Compound 2AF],1 to 20
7,CCOc1ccccc1NC(=O)Cn1c(=O)c(CNc2ccccc2)cc2ccc(OC)cc21 [Compound 2AG],1 to 20
8,COc1ccc2cc(CNc3ccc(C)cc3)c(=O)n(CC(=O)Nc3ccc(F)cc3)c2c1 [Compound 2AH],1 to 20
9,CCc1ccccc1NC(=O)Cn1c(=O)c(CNc2ccc(OC)cc2)cc2cc3c(cc21)OCCO3 [Compound 2AI],1 to 20
10,COc1ccc(NCc2cc3ccc(C)cc3n(CC(=O)Nc3ccccc3C)c2=O)cc1OC [Compound 2AJ],1 to 20
11,Cc1ccc(NCc2cc3cc4c(cc3n(CC(=O)Nc3ccccc3C)c2=O)OCCO4)cc1 [Compound 2AK],1 to 20
12,CCc1ccc(NCc2cc3cc4c(cc3n(CC(=O)Nc3ccc(OC)cc3)c2=O)OCCO4)cc1 [Compound 2AL],1 to 20
13,Cc1ccc(NCc2cc3cc4c(cc3n(CC(=O)Nc3c(C)cccc3C)c2=O)OCCO4)cc1 [Compound 2AM],1 to 20
14,CCc1ccc(NCc2cc3ccc(OC)cc3n(CC(=O)Nc3cc(C)ccc3C)c2=O)cc1 [Compound 2AN],1 to 20
15,CCc1ccc(NCc2cc3ccc(OC)cc3n(CC(=O)Nc3c(C)cc(C)cc3C)c2=O)cc1 [Compound 2AO],1 to 20
16,CCc1ccc(NCc2cc3ccc(OC)cc3n(CC(=O)Nc3ccccc3CC)c2=O)cc1 [Compound 2AP],1 to 20
17,CCOC(=O)c1ccc(NC(=O)Cn2c(=O)c(CNc3ccccc3)cc3ccc(OC)cc32)cc1 [Compound 2AQ],> 20
18,COc1ccc2cc(CNc3ccccc3)c(=O)n(CC(=O)NCc3ccc(Cl)cc3)c2c1 [Compound 2AR],> 20
19,CCc1ccc(NCc2cc3cc(OC)c(OC)cc3n(CC(=O)Nc3ccc(CC)cc3)c2=O)cc1 [Compound 2AS],> 20
20,COc1ccc(NCc2cc3ccc(OC)cc3n(CC(=O)Nc3ccccc3F)c2=O)cc1 [Compound 2AT],> 20
21,COc1ccc2cc(CNc3ccccc3)c(=O)n(CC(=O)NCc3ccccc3)c2c1 [Compound 2AU],> 20
22,COc1ccc(NCc2cc3ccc(OC)cc3n(CC(=O)Nc3ccc(C(C)C)cc3)c2=O)cc1 [Compound 2AV],> 20
23,COc1ccc2cc(CNc3ccc(OC)c(OC)c3)c(=O)n(CC(=O)Nc3ccccc3C)c2c1 [Compound 2AW],> 20
24,COc1ccc2cc(CNc3ccccc3)c(=O)n(CC(=O)NCCc3ccccc3)c2c1 [Compound 2AX],> 20
